The values below come from paper PMC7416818 (Analytical biochemistry, 2020).

Read-outs that look alike come from different tables or passages of the source. Some results are limits rather than exact numbers.

The term Ki denotes the equilibrium dissociation constant of an inhibitor or competing ligand from its target. Usually Km stands for the substrate concentration at which the rate is half of its maximum.

Experiment [1] has as its target T1, NNMT (Homo sapiens, UniProt P40261).
T1 sequence (P40261 1-264): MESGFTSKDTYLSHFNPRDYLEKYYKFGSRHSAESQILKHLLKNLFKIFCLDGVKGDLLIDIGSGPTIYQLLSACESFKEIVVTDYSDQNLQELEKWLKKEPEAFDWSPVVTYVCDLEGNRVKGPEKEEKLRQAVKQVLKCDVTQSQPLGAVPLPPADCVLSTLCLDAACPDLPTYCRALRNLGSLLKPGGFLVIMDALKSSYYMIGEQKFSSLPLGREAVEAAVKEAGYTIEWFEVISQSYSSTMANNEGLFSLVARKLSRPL
To be noted: read-out: Literature value Ki, determined by SAHH coupled assay; cited from earlier work.

The target of experiment [2] is T1, NNMT. Put plainly: FP-based competition binding assay with probe II138.
Experiment [3] deals with T1, NNMT. The experiment is described as follows: SAHH-coupled fluorescence assay. The experiment is classed as biochemical. The following applies: linker effect.
Experiment [4] addresses T1, NNMT. The following applies: read-out: Literature value Km; cofactor; cited from earlier work.

With `NC(=O)c1cccnc1` [NAM, nicotinamide], the figures for the Ki in experiment [1] and in experiment [2] were over 100 µM and over 1000 µM, respectively.
Turning to 1 methyl quinoline [1-MQ], in experiment [1], the Ki is over 100 µM.
Turning to `NCCCNc1ncnc2c1ncn2[C@@H]1O[C@H](CN(CC#Cc2cccc(C(N)=O)c2)CC[C@H](N)C(=O)O)[C@@H](O)[C@H]1O` [compound 10], the “Loss in Ki in comparison with LL320” value in experiment [3] was “about 100 fold”. In addition, in experiment [2] (FP Ki versus SAHH-coupled Ki), the “Difference of Ki in FP assay in comparison with SAHH coupled assay” value is “less than 2 fold”.
Turning to `C[S+](CC[C@H](N)C(=O)[O-])C[C@H]1O[C@@H](n2cnc3c(N)ncnc32)[C@H](O)[C@@H]1O` (stereo partly drawn) [AdoMet, S-adenosyl-L-methionine], the Km in experiment [4] was 24 ± 6.8 µM. The same compound had a Ki in experiment [2] of 20.3 ± 2.9 µM.
